Test results: the supplement of paper PMC10307832

Experiments:
Assay in all cases: relative viability (nuclei count vs DMSO), 5 days (fraction); higher = more cells survive
[1] = tested on: A-427
In short: (§1)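 After 5 days of treatment, lung cancer cells in 1536-well plates were fixed and stained in a single step (final 0.05% Triton X-100, 1% formaldehyde, 1 ug/ml Hoechst) and their nuclei counted on 4× images. Treatment had been applied by pin tool the day after seeding as one drug alone or as a fixed anchor-drug dose with five library-drug doses (not always all listed) in √10 steps. Relative viability is the nuclei count of treated wells divided by that of vehicle wells, and values are medians of duplicate plates.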

[2] = tested on: BEN
In short: as §1

[3] = tested on: HARA
In short: as §1

[4] = tested on: LCLC-97TM1
In short: as §1

[5] = tested on: LOU-NH91
In short: as §1

[6] = tested on: LU99A
In short: as §1

[7] = tested on: LXF-289
In short: as §1

[8] = tested on: NCI-H1395
In short: as §1

[9] = tested on: NCI-H1666
In short: as §1

[10] = tested on: NCI-H1755
In short: as §1

[11] = tested on: NCI-H1793
In short: as §1

[12] = tested on: NCI-H1915
In short: as §1

[13] = tested on: NCI-H1944
In short: as §1

[14] = tested on: NCI-H2023
In short: as §1

[15] = tested on: NCI-H2126
In short: as §1

[16] = tested on: NCI-H2170
In short: as §1

[17] = tested on: NCI-H23
In short: as §1

[18] = tested on: NCI-H322M
In short: as §1

[19] = tested on: NCI-H441
In short: as §1

[20] = tested on: NCI-H460
In short: as §1

[21] = tested on: NCI-H650
In short: as §1

[22] = tested on: PC-3 [JPC-3]
In short: as §1

[23] = tested on: SK-LU-1
In short: as §1

## O=C(O)CCCCC(CCSCc1ccccc1)SCc1ccccc1 (centres undefined) [CPI-613] + Cc1nc(Nc2ncc(C(=O)Nc3c(C)cccc3Cl)s2)cc(N2CCN(CCO)CC2)n1 [Dasatinib] (partner 0.075 µM)
[1]; first compound 5 µM
  relative viability: 0.684
[1]; first compound 15.81 µM
  relative viability: 0.765
[1]; first compound 50 µM
  relative viability: 0.547
[1]; first compound 158.11 µM
  relative viability: 0.365
[1]; first compound 500 µM
  relative viability: 0.131
[2]; first compound 5 µM
  relative viability: 0.341
[2]; first compound 15.81 µM
  relative viability: 0.293
[2]; first compound 50 µM
  relative viability: 0.293
[2]; first compound 158.11 µM
  relative viability: 0.267
[2]; first compound 500 µM
  relative viability: 0.279
[3]; first compound 15.81 µM
  relative viability: 0.23
[3]; first compound 50 µM
  relative viability: 0.309
[3]; first compound 158.11 µM
  relative viability: 0.149
[3]; first compound 500 µM
  relative viability: 0.0196
[4]; first compound 5 µM
  relative viability: 0.843
[4]; first compound 15.81 µM
  relative viability: 0.901
[4]; first compound 50 µM
  relative viability: 0.791
[4]; first compound 158.11 µM
  relative viability: 0.634
[4]; first compound 500 µM
  relative viability: 0.0334
[5]; first compound 5 µM
  relative viability: 0.564
[5]; first compound 15.81 µM
  relative viability: 0.475
[5]; first compound 50 µM
  relative viability: 0.532
[5]; first compound 158.11 µM
  relative viability: 0.481
[5]; first compound 500 µM
  relative viability: 0.499
[6]; first compound 5 µM
  relative viability: 0.551
[6]; first compound 15.81 µM
  relative viability: 0.577
[6]; first compound 50 µM
  relative viability: 0.424
[6]; first compound 158.11 µM
  relative viability: 0.426
[6]; first compound 500 µM
  relative viability: 0.0381
[7]; first compound 5 µM
  relative viability: 0.208
[7]; first compound 15.81 µM
  relative viability: 0.206
[7]; first compound 50 µM
  relative viability: 0.235
[7]; first compound 158.11 µM
  relative viability: 0.203
[7]; first compound 500 µM
  relative viability: 0.0464
[8]; first compound 5 µM
  relative viability: 0.397
[8]; first compound 15.81 µM
  relative viability: 0.352
[8]; first compound 50 µM
  relative viability: 0.414
[8]; first compound 158.11 µM
  relative viability: 0.409
[8]; first compound 500 µM
  relative viability: 0.358
[9]; first compound 5 µM
  relative viability: 0.808
[9]; first compound 15.81 µM
  relative viability: 0.858
[9]; first compound 50 µM
  relative viability: 0.749
[9]; first compound 158.11 µM
  relative viability: 0.386
[9]; first compound 500 µM
  relative viability: 0.18
[10]; first compound 5 µM
  relative viability: 0.406
[10]; first compound 15.81 µM
  relative viability: 0.41
[10]; first compound 50 µM
  relative viability: 0.446
[10]; first compound 158.11 µM
  relative viability: 0.464
[10]; first compound 500 µM
  relative viability: 0.225
[11]; first compound 5 µM
  relative viability: 0.327
[11]; first compound 15.81 µM
  relative viability: 0.317
[11]; first compound 50 µM
  relative viability: 0.421
[11]; first compound 158.11 µM
  relative viability: 0.165
[11]; first compound 500 µM
  relative viability: 0.018
[12]; first compound 5 µM
  relative viability: 0.294
[12]; first compound 15.81 µM
  relative viability: 0.244
[12]; first compound 50 µM
  relative viability: 0.245
[12]; first compound 158.11 µM
  relative viability: 0.228
[12]; first compound 500 µM
  relative viability: 0.169
[13]; first compound 5 µM
  relative viability: 0.212
[13]; first compound 15.81 µM
  relative viability: 0.219
[13]; first compound 50 µM
  relative viability: 0.188
[13]; first compound 158.11 µM
  relative viability: 0.19
[13]; first compound 500 µM
  relative viability: 0.0792
[14]; first compound 5 µM
  relative viability: 0.552
[14]; first compound 15.81 µM
  relative viability: 0.457
[14]; first compound 50 µM
  relative viability: 0.483
[14]; first compound 158.11 µM
  relative viability: 0.0687
[14]; first compound 500 µM
  relative viability: 0.0087
[15]; first compound 5 µM
  relative viability: 0.561
[15]; first compound 15.81 µM
  relative viability: 0.58
[15]; first compound 50 µM
  relative viability: 0.605
[15]; first compound 158.11 µM
  relative viability: 0.331
[15]; first compound 500 µM
  relative viability: 0.107
[16]; first compound 5 µM
  relative viability: 0.586
[16]; first compound 15.81 µM
  relative viability: 0.566
[16]; first compound 50 µM
  relative viability: 0.612
[16]; first compound 158.11 µM
  relative viability: 0.461
[16]; first compound 500 µM
  relative viability: 0.167
[17]; first compound 5 µM
  relative viability: 0.725
[17]; first compound 15.81 µM
  relative viability: 0.635
[17]; first compound 50 µM
  relative viability: 0.621
[17]; first compound 158.11 µM
  relative viability: 0.293
[17]; first compound 500 µM
  relative viability: 0.017
[18]; first compound 5 µM
  relative viability: 0.248
[18]; first compound 15.81 µM
  relative viability: 0.245
[18]; first compound 50 µM
  relative viability: 0.257
[18]; first compound 158.11 µM
  relative viability: 0.23
[18]; first compound 500 µM
  relative viability: 0.0545
[19]; first compound 5 µM
  relative viability: 0.581
[19]; first compound 15.81 µM
  relative viability: 0.52
[19]; first compound 50 µM
  relative viability: 0.484
[19]; first compound 158.11 µM
  relative viability: 0.3
[19]; first compound 500 µM
  relative viability: 0.044
[20]; first compound 5 µM
  relative viability: 0.54
[20]; first compound 15.81 µM
  relative viability: 0.454
[20]; first compound 50 µM
  relative viability: 0.572
[20]; first compound 158.11 µM
  relative viability: 0.334
[20]; first compound 500 µM
  relative viability: 0.317
[21]; first compound 5 µM
  relative viability: 0.474
[21]; first compound 15.81 µM
  relative viability: 0.366
[21]; first compound 50 µM
  relative viability: 0.424
[21]; first compound 158.11 µM
  relative viability: 0.345
[21]; first compound 500 µM
  relative viability: 0.361
[22]; first compound 5 µM
  relative viability: 0.903
[22]; first compound 15.81 µM
  relative viability: 0.948
[22]; first compound 50 µM
  relative viability: 0.909
[22]; first compound 158.11 µM
  relative viability: 0.879
[22]; first compound 500 µM
  relative viability: 0.348
[23]; first compound 5 µM
  relative viability: 0.176
[23]; first compound 15.81 µM
  relative viability: 0.18
[23]; first compound 50 µM
  relative viability: 0.187
[23]; first compound 158.11 µM
  relative viability: 0.151
[23]; first compound 500 µM
  relative viability: 0.0997
